Assay results taken from patent publication US20210038732A1, “ANTICANCER MICRORNA AND LIPID FORMULATIONS THEREOF” (INTERNA TECHNOLOGIES B.V., priority 2018, published 2021).

Test system: genes downregulated in at least three cell lines
Assay: Annotation clustering of downregulated genes with DAVID software
Set-up: species or system human
Source text: For clustering and pathway analysis, a bigger gene set was required. […] Other clusters contained genes with roles in angiogenesis, unfolded protein response, chemotaxis, protein transport, nucleoside metabolism, glycosylation, oncogenesis, wound healing. […] These 161 genes are ERMP1, MCL1, ZDHHC18, KIAA1147, IDS, EIF4B, ETS1, TXLNA, NT5E, WSB2, PLAUR, LRRC40, PTPLB, SLC15A1, NCEH1, IL17RD, STMN1, AIMP2, PHACTR2, GALNT1, LAMC2, SCP2, SLC26A2, LUZP1, SHMT2, UBP1, PHLDA2, ST5, ENDOD1, CGNL1, MARCKSL1, RAB11FIP5, CCND1, RUSC1, FAM168B, ZC3H7B, PPTC7, SLC39A5, ACSS2, TPP1, HYOU1, DCTN5, CRKL, WDFY2, WDR82, SLC6A12, CDK6, SULF2, TWISTNB, ATP5F1, ALDH9A1, TOR4A, NET1, RSF1, NUP50, ZMAT3, AP2M1, MPP2, ITGB3, GALNT14, SLC35D1, PPARGC1A, TBL1XR1, MSANTD3, CLSTN1, PITPNB, CECR2, KIAA1644, ARHGAP29, KIAA1191, GREB1, PIK3R1, TNFRSF21, SEPN1, SYNRG, LRP4, ZNF365, CRYAA, MED21, GNAI3, ATP5SL, UBE2L6, ANKRD13A, GCH1, NIPA1, TRIM62, USP39, HEG1, DCAF7, LRRC8A, SOX5, IRF1, MORC4, UNC119B, FAF2, SLC30A1, C1QBP, ST3GAL4, TRIB2, TBC1D5, TMPPE, MAPK8, CBX1, CADM1, CCDC28A, YWHAZ, ERAP2, STON2, AP5M1, TGFB2, CYTH1, FAM20B, DPY19L1, ARHGAP19, LPAR3, LMLN, NUDT15, PLAU, VAMP8, HHAT, AGPAT1, ATP8B2, ACPL2, SCAMP4, LAT2, OSMR, NUDT21, HPRT1, STARD7, GABPA, CDC42EP2, THBS4, ATP6V1B2, PRNP, GFPT1, MAX, KRAS, CNOT6, NUDT3, RFWD3, APPL1, SLC23A2, BOD1, PDE3A, SLC30A7, CEP41, NOTCH2, RGS2, CDC42EP4, TP53INP1, SQSTM1, DDAH1, SLC35D2, FOCAD, GPATCH11, CBL, TMEM30B, HFE, PLEKHB2, ARPC5, and ABI2. Among these genes, NT5E, TNFRSF21, YWHAZ, MAPK8, PLAU, PLAUR, NOTCH2, ETS1, IL17RD, CDK6, EIF4B, and MCL1 are particularly interesting for their crucial involvement in the cell cycle pathway, in immune activation, as well as in cell movement. […] ETS1, YWHAZ, MPP2, PLAU, CDK4, CDK6, EIF4B, RAD51, CCNA2, STMN1, and DCAF7 are of particular interest for their crucial involvement in regulation of the cell cycle.

miRNA-193a: duplex of the miRNA-193a-3p of SEQ ID NO: 218 (mimic, sense) with antisense strand SEQ ID NO: 219; naked in vitro, formulated in vivo (sense UGGGACUUUGUAGGCCAGUUTT; antisense AACUGGCCUACAAAGUCCCAGU; chemistry not given here; listed as Homo sapiens)
Enrichment score (ES) (Gene cluster Angiogenesis): 2.17
Enrichment score (ES) (Gene cluster Apoptosis): 2.55
Enrichment score (ES) (Gene cluster Chemotaxis): 1.66
Enrichment score (ES) (Gene cluster Glycosylation): 1.47
Enrichment score (ES) (Gene cluster Immune activation): 1.16
Enrichment score (ES) (Gene cluster Nucleoside metabolism): 1.49
Enrichment score (ES) (Gene cluster Oncogenesis): 1.37
Enrichment score (ES) (Gene cluster Protein transport): 1.51
Enrichment score (ES) (Gene cluster Unfolded protein response): 1.84
Enrichment score (ES) (Gene cluster Wound healing): 1.18
